Experimental data: patent US6355617B1, “Peptide derivatives” (Syngenta Limited, priority 1996, dated 2002)

Assays:
HLA-DR4Dw4 = biological target: T1, HLA-DR4Dw4 (Homo sapiens, UniProt P01903+P01911, A100K/A169T/F76Y/I96L/K127E/L162R/M171V/N62H/P40V/Q125Y/R42H/S133A/S149N/S66Y/V115G/V209L/W38E); assay: Test A: Purified HLA-DR peptide in vitro binding assay; conditions: competition with biotin-FHA307-320, 48 hours incubation
T1 construct: a cDNA encoding the β chain is cloned into the transfer vector pAcUW1; made in house; host or cells: Sf21 insect cells, double-recombinant baculovirus
Experimental: Test A: Purified HLA-DR peptide in vitro binding assay. […]. At the end of the incubation period 100 μl of the incubate is transferred to Enzyme Linked ImmunoSorbant Assay (ELISA) plates (Nunc) previously coated with an anti-MHC antibody (L243-American Type Culture Collection (ATCC) HB55 as described in Lampson and Levy (1980) J. Immunol. 125, 293-299) at a concentration of 10 μg/ml for 1 hour at room temperature and blocked thereafter for 1 hour with 1% bovine serum albumin (BSA) in PBS and 0.05% Tween 20. […] The reaction is stopped by adding 2M sulphuric acid (10 μl per well) and the absorbance read at 450 nm to quantify the amount of peptide bound. The inhibitory activity-of peptides is obtained by plotting absorbance against concentration. […]
To create the double-recombinant baculovirus, a cDNA encoding the β chain is cloned into the transfer vector pAcUW1 [Weyer, U; Knight, S & Possee, R D (1990) J. Gen. […] Double-recombinant viruses are detected by spotting insect cells, infected with randomly picked viruses from the transfection, onto membranes and reacting them with a monoclonal antibody e.g. L243 which specifically recognises the HLA-DR heterodimer. Binding of the antibody to Sf21 insect cells is detected using standard flow cytometry techniques, readily available in the literature. […]

BALB/C mice = assay: Test C: Peptide stimulated DTH (delayed type hypersensitivity) in BALB/C mice; assay type: in vivo; conditions: ovalbumin DTH footpad swelling, 3-day osmotic mini-pumps
Experimental: Test C: Peptide stimulated DTH (delayed type hypersensitivity) in BALB/C mice. […] Balb/c female mice (18-20 g), 5 per group, were immunised sub-cutaneously on the flank with 0.1 ml of an emulsion of ovalbumin (Sigma) (2 mg/ml in saline) mixed 1:1 (v/v) with complete Freunds adjurant (Sigma). Seven days later footpad thickness was determined using a dual caliper micrometer followed by a challenge in one hind footpad with a 30 μl sub-plantar injection of 1% heat-aggregated ovalbumin protein in saline. Twenty-four hours after antigen challenge, footpads were measured and the DTH response calculated as the percentage increase in footpad thickness in the injected footpad compared to contralateral control. Inhibitors were adminstered by 3-day osmotic mini-pumps (Alzet) implanted 24 hours prior to antigen challenge at doses ranging from 10 mg/kg/day to 0.1 μg/kg/day. The degree of inhibition was calculated by substracting the value for swelling of inhibitor treated footpads from that of the vehicle dosed controls, dividing by the control value and multiplying by 100%.

With “Phv-Arg-Ala-IIb-Thr-Ala-Ala-Ala-Papa-NH2 [Example 1]” the “concentration showing significant binding to HLA-DR4Dw4 in Test A” value (HLA-DR4Dw4) was at most 0.1 µM and the “dose at which active in Test C” value (BALB/C mice) was under 0.1 mg/kg/day.
